Measurements taken from BigSolDB 2.1.

O=C(O)c1cccc2ccccc12
solubility (mole fraction)
Settings	in acetic acid	in ethanol	in ethyl acetate	in isobutanol	in isopropanol	in methanol	in methyl acetate	in n-butanol	in n-propanol
293.15 K	0.0172	0.0282	0.0294	0.0187	0.0251	0.0206	0.0257	0.03	0.027
298.15 K	0.0194	0.0311	0.0329	0.0213	0.0284	0.0229	0.0301	0.0344	0.0302
303.15 K	0.0224	0.0356	0.0374	0.0257	0.034	0.0269	0.0335	0.0389	0.0351
308.15 K	0.0257	0.0402	0.0418	0.0311	0.0401	0.0304	0.0387	0.0444	0.0407
313.15 K	0.0296	0.0457	0.0472	0.0364	0.0472	0.0351	0.043	0.0514	0.0461
318.15 K	0.0334	0.0513	0.0534	0.0427	0.0544	0.0392	0.0498	0.0605	0.0536
323.15 K	0.0383	0.0574	0.06	0.0502	0.0636	0.0443	0.055	0.0684	0.0604
328.15 K	0.0439	0.0654	0.0673	0.0588	0.0731	0.0496	0.0622	0.079	0.0702
333.15 K	0.0503	0.0738	0.0754	0.0685	0.0852	0.0557	–	0.0901	0.0795
